Results: patent publication US20050245471A1, “Combination products for use in antitumoral treatment” (priority 2002, published 2005)

Test system: CSF-1
Test: Quantification of CSF-1 secreted by NS2T2A1 cells transfected with oligonucleotides (ELISA)
Type: cell-based, human
Details: 250 nM oligonucleotide with 2.4 μg/ml cytofectin GS-3815, ELISA of culture medium 24 h after beginning of transfection, relative to non-transfected cell line
Experimental: Line NS2T2A1 is a line of cells from the human breast (Ma et al., Int. J. Cancer, 1998, 78: 112-119) obtained by mammoplasty, transformed by SV40. This line secretes CSF-1 linearly as a function of the cell growth.
The cells were cultivated in medium M5 (Gibco, France) complemented with 5% of -horse serum as described by Ma et al. (Int. J. Cancer, 1998, 78:112-119). Seeding was done in 6 well plates at a concentration, of 5×10^5 cells/ml/well. Transfection by oligonucleotides was done 24 h later, when the cells were in the exponential growth phase and they had reached 60% to 80% of confluence.
Transfection by oligonucleotides was done using cytofectin GS-3815 (Glen research, Sterling. Va.). Oligonucleotides and cytofectin were diluted separately in polystyrene tubes with the opti-MEM medium (Gibco, France), and the cytofectin was mixed with an equal volume of diluted oligonucleotides. The mix was left for 15 minutes at ambient temperature to enable the formation of oligonucleotide/cytofectin complexes. Finally, the M5 medium was added to the solution to obtain final concentrations equal to 2.4 μg/ml of cytofectin and 250 nM of oligonucleotides. All transfections were done in the M5 medium and in a final volume of 1 ml. Oligonucleotide/cytofectin complexes were left in contact with cells for 24 h. All steps described above were done under sterile conditions.
All experiments were done in triplicate for each concentration of oligonucleotides.
The quantity of CSF-1 secreted in the culture medium of NS2T2A1 cells was-measured by an ELISA test, 24 h after the beginning of the transfection, referring strictly to the protocol described by the supplier (R&D systems, Europe Ltd, UK). The results are expressed as a percentage of CSF-1 expressed by the transfected cells with respect to the CSF-1 expressed by a non-transfected cell line.

| Substance | Percentage of CSF-1 expressed |
| --- | --- |
| SEQ ID No. 2: phosphorothioate oligonucleotide with pdU/pdC base substitutions, hybridising region 135-152 of SEQ ID No. 1 (CSF-1) (GGGAGGGUGCUGUACCGA; listed as RNA, chemistry not fully specified) | 70% |
| SEQ ID No. 3: phosphorothioate oligonucleotide with pdU/pdC base substitutions, hybridising region 284-301 of SEQ ID No. 1 (CSF-1) (UCUGGAGCAGGUUAAU; listed as RNA, chemistry not fully specified) | 39% |
| SEQ ID No. 4: phosphorothioate oligonucleotide with pdU/pdC base substitutions, hybridising region 341-358 of SEQ ID No. 1 (CSF-1) (ACACGAUGGAAUUCUUCC; listed as RNA, chemistry not fully specified) | 50% |
| SEQ ID No. 5: phosphorothioate oligonucleotide with pdU/pdC base substitutions, hybridising region 409-426 of SEQ ID No. 1 (CSF-1) (UUGUGGCGGUUAGGGUAG; listed as RNA, chemistry not fully specified) | 90% |
